Bridge positions count the residues as written; N and C are the ends. Peptide text beside a SMILES is read from it.
Key:
intestinal GC-C receptor = molecular target: T1, intestinal GC-C receptor (Homo sapiens, UniProt P25092); experiment: GC-C receptor activity assay (cyclic GMP) in T84 cells; type: cell-based; conditions: chemically synthesized peptides, cyclic GMP by EIA
T1 construct: monolayers of T84 cells in 24-well plates; host or cells: T84 human colon carcinoma cells
Experimental: The ability of SEQ ID NO:5, SEQ ID NO:4, SEQ ID NO:3, and SEQ ID NO:6 to activate the intestinal GC-C receptor was assessed in an assay employing the T84 human colon carcinoma cell line (American Type Culture Collection (Bethesda, Md.)). For the assays cells were grown to confluency in 24-well culture plates with a 1:1 mixture of Ham's F12 medium and Dulbecco's modified Eagle's medium (DMEM), supplemented with 5% fetal calf serum and were used at between passages 54 and 60.
Briefly, monolayers of T84 cells in 24-well plates were washed twice with 1 ml/well DMEM, then incubated at 37° C. for 10 min with 0.45 ml DMEM containing 1 mM isobutylmethylxanthine (IBMX), a cyclic nucleotide phosphodiesterase inhibitor, Test peptides (50 μl) were then added and incubated for 30 minutes at 37° C. The media was aspirated and the reaction was then terminated by the addition of ice cold 0.5 ml of 0.1N HCl. The samples were held on ice for 20 minutes and then evaporated to dryness using a heat gun or vacuum centrifugation.

[1] = oral bioavailability in mice, radioimmunoassay (RIA) detection; set-up: species or system CD-1 mice; conditions: female, CD-1, mouse, in vivo, 8 mg/kg intravenous, read-out: AUCi.v.,(0-4h) (converted)
Experimental: Oral bioavailability was also determined using a radioimmunoassay (RIA) detection method. Female CD-1 mice (Charles River, Wilmington, Mass.) weighing approximately 25g (7-8 weeks old) or female CD rats (Charles River, Wilmington, Mass.) weighing approximately 153 g were included in this study. Monoclonal antibody, 20C1 (Brandwein et al. 1985 Infect Immun. 47:242-246), which recognizes SEQ ID NO:7 and ^125I labeled-SEQ ID NO:7, a labeled tracer, were used in these experiments. The labeled tracer was purified by HPLC using a Waters C-18u Bondapak® column (25 cm) previously equilibrated with 10 mM ammonium acetate pH 5.8. […] Blood was drawn from all dosed animals by retro-orbital eye bleeding at specific intervals and test compound levels were analyzed by radioimmunoassay (RIA). […] Radioactivity was measured in a LS 6500 scintillation counter (Beckman-Coulter). The binding efficiency is defined as the percent radioactivity in the B0 sample compared to the input counts. The percent bound in each sample was calculated by the equation: […]
A standard curve was prepared by plotting % B/B0 as a function of the log SEQ ID NO:3 concentration. […] The area under the curve from T=0 to 4 hours (AUC0-4h) was calculated by the software for both p.o. and i.v. dosed animals. […] Oral Bioavailabilty (F) is calculated using the equation: […]

gastrointestinal transit = gastrointestinal transit assay in wild-type and GC-C KO mice; type: in vivo; conditions: oral 100 μg/kg
Experimental: Wild type and GC-C KO mice were fasted overnight and SEQ ID NO: 3 or vehicle alone were orally administered 10 minutes prior to an oral dose of a 10% Activated Carbon/10% Gum Arabic suspension. Animals were sacrificed […] after peptide or vehicle administration.

T1 sequence (P25092 24-1073): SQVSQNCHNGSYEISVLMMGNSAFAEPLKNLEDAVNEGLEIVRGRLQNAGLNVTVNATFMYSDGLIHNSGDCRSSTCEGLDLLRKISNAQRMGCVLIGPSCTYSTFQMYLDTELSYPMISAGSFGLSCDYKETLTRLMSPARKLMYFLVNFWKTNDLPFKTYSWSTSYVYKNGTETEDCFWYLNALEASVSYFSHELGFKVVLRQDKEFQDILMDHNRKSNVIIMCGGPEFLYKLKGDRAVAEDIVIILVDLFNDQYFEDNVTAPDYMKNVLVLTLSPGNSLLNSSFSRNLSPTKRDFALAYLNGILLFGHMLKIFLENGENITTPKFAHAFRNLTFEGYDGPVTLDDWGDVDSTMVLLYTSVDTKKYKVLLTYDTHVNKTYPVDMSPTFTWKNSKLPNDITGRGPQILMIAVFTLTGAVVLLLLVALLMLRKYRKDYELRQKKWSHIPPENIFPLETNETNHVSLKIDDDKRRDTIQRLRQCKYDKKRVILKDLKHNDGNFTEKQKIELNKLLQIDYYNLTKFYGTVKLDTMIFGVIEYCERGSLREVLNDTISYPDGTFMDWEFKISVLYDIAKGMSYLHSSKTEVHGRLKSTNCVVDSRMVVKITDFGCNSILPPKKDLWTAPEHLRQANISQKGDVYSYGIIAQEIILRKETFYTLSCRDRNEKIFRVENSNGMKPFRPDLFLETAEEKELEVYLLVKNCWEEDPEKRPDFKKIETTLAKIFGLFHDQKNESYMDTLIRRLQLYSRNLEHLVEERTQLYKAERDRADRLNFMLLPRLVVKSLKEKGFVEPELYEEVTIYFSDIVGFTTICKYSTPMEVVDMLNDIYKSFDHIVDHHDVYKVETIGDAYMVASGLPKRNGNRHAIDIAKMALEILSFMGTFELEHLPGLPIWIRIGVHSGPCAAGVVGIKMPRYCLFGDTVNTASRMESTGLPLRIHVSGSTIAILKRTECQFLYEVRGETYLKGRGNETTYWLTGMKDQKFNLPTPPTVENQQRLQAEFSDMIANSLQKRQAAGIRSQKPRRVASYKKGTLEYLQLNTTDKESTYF

For `C[C@@H]1NC(=O)[C@@H]2CCCN2C(=O)[C@H](CC(N)=O)NC(=O)[C@@H]2CSSC[C@H](N)C(=O)N[C@H]3CSSC[C@H](NC1=O)C(=O)N[C@@H]([C@@H](C)O)C(=O)NCC(=O)N[C@H](C(=O)N[C@@H](Cc1ccc(O)cc1)C(=O)O)CSSC[C@H](NC(=O)[C@H](Cc1ccc(O)cc1)NC(=O)[C@H](CCC(=O)O)NC3=O)C(=O)N2` [SEQ ID NO:3] (H-CCEYCCNPACTGCY-OH; disulfide 1-6, 2-10, 5-13; N-terminus and C-terminus assumed), the “activity in GC-C receptor activity assay” value (intestinal GC-C receptor) was “activity comparable to SEQ ID NO:4”, the AUC [1] was 27700 ng·h/mL and the “gastrointestinal transit rate versus vehicle” value (gastrointestinal transit) was “an increase (p<0.001) in gastrointestinal transit rate”.

Source: patent publication US20090253634A1, “Methods and Compositions for the Treatment of Gastrointestinal Disorders” (MICROBIA, INC., priority 2005, published 2009)
